Assays:
Format in all cases: biochemical
JAK1 = JAK1 (Homo sapiens, UniProt P23458); assay: JAK Kinase Assay (JAK1, Caliper EZ Reader, fluoresceinated peptide); details: ATP 76.5 μM; JAK1 10 nM; 120 minutes at room temperature; read-out: JAK1 inhibition
JAK2 = JAK2 (Homo sapiens, UniProt O60674); assay: JAK2 Assay (Caliper EZ Reader, fluoresceinated peptide); details: ATP 11.4 μM; JAK2 0.25 nM; 15 minutes at room temperature; read-out: JAK2 inhibition
JAK3 = target: T1, JAK3 (Homo sapiens, UniProt P52333); assay: JAK3 Assay (Caliper EZ Reader, fluoresceinated peptide); details: ATP 3.5 μM; JAK3 0.5 nM; 30 minutes at room temperature; read-out: JAK3 inhibition
T1 sequence (P52333 1-1124): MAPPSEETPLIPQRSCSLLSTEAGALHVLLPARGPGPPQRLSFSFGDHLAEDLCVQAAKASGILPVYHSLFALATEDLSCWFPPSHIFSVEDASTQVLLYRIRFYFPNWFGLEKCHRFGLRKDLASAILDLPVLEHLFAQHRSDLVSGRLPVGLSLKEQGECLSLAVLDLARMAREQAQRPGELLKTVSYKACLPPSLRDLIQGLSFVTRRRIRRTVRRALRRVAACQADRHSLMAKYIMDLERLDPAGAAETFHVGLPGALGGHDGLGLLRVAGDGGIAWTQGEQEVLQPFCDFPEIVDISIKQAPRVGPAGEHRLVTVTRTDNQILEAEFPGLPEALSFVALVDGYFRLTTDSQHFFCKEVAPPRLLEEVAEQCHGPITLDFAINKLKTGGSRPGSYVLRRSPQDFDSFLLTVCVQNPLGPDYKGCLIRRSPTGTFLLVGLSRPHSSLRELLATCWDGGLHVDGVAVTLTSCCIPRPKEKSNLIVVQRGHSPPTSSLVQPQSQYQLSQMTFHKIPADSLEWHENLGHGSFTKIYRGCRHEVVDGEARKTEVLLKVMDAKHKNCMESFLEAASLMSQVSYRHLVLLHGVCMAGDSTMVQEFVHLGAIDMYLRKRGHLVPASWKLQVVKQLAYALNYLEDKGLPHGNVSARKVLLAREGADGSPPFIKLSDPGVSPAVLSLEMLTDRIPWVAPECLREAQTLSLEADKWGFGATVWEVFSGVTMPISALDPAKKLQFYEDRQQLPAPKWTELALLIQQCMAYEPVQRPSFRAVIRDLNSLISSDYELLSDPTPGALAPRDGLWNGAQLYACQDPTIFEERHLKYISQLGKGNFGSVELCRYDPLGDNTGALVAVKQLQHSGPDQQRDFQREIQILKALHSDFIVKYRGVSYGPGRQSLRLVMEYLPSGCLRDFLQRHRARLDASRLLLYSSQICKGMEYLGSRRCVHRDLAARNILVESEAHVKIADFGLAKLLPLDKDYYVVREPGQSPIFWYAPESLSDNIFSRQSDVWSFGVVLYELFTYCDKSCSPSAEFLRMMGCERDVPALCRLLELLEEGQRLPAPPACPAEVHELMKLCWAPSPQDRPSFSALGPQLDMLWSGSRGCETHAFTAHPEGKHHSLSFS

TYK2 = TYK2 (Homo sapiens, UniProt P29597); assay: TYK2 Assay (Caliper EZ Reader, fluoresceinated peptide); details: ATP 35.4 μM; TYK2 10 nM; 10 minutes at room temperature; read-out: TYK2 inhibition
Sequence of TYK2 (P29597 whole entry, species assumed): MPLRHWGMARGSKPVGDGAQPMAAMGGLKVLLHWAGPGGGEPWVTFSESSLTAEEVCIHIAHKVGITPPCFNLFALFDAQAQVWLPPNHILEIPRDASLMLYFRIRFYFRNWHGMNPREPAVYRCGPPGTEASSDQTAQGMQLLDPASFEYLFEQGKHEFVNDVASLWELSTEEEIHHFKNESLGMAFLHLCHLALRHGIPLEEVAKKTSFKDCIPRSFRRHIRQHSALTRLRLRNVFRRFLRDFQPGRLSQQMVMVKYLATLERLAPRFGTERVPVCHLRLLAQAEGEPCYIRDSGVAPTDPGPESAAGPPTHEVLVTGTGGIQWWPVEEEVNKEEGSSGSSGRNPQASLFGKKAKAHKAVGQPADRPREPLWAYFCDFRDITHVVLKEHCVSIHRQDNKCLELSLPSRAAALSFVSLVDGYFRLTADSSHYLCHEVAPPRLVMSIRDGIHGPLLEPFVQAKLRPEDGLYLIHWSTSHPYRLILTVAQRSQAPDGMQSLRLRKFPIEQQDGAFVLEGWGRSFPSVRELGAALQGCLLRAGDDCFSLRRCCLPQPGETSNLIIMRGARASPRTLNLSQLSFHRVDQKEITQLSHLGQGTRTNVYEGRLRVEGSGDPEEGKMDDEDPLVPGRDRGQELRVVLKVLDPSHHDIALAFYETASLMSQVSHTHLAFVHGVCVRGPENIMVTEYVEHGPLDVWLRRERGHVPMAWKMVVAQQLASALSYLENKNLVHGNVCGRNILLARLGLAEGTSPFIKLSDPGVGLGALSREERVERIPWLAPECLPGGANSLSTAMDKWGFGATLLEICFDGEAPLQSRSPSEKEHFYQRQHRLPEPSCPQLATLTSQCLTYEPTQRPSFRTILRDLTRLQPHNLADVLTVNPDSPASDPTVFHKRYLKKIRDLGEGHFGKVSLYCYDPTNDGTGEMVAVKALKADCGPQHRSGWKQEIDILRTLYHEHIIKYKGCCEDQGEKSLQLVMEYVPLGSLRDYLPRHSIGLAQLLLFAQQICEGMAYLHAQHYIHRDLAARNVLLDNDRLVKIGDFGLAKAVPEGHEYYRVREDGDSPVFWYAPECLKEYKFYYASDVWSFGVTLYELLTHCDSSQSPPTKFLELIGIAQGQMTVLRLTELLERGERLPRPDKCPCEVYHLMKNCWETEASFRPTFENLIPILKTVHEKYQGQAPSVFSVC
Procedure: 384-well plates in the left foot butoxy measured progress. The final assay volume was 25 μL, 250 nL 100× compounds, 10 μL enzyme mix and 15 μL substrate mix (fluoresceinated peptide and ATP) in assay buffer (50 mM HEPES (pH 7.5), 10 mM MgCl2, 0.01% TritonX-100, 0.01% Brij35, 0.5 mM EGTA and 2 mM DTT) prepared as test compound. B mixing the TYK2 with substrates and test compounds to start the reaction. The reaction mixture was incubated for 10 minutes at room temperature, then added 30 μL stop buffer for each sample to terminate the reaction with 50 mM EDTA. After termination of the kinase reaction, the proportion of phosphorylated product was determined as a fraction of total peptide substrate using Caliper EZ Reader 1. Inhibition data were calculated by comparison with 100% of the reaction mixture without enzyme inhibition and vehicle-only reaction mixture billion % inhibition compared. The final concentration of reagents in the assays is: ATP, 35.4 μM; TYK2 fluorescent peptide (5-FAM-KKKKEEIYFFF-CONH2), 3 μM; TYK2, 10 nM; and DMSO, 1% Dose response curve were generated to determine the concentration required for IC50 of TYK2 activity.

Sequence of JAK1 (P23458 whole entry, species assumed): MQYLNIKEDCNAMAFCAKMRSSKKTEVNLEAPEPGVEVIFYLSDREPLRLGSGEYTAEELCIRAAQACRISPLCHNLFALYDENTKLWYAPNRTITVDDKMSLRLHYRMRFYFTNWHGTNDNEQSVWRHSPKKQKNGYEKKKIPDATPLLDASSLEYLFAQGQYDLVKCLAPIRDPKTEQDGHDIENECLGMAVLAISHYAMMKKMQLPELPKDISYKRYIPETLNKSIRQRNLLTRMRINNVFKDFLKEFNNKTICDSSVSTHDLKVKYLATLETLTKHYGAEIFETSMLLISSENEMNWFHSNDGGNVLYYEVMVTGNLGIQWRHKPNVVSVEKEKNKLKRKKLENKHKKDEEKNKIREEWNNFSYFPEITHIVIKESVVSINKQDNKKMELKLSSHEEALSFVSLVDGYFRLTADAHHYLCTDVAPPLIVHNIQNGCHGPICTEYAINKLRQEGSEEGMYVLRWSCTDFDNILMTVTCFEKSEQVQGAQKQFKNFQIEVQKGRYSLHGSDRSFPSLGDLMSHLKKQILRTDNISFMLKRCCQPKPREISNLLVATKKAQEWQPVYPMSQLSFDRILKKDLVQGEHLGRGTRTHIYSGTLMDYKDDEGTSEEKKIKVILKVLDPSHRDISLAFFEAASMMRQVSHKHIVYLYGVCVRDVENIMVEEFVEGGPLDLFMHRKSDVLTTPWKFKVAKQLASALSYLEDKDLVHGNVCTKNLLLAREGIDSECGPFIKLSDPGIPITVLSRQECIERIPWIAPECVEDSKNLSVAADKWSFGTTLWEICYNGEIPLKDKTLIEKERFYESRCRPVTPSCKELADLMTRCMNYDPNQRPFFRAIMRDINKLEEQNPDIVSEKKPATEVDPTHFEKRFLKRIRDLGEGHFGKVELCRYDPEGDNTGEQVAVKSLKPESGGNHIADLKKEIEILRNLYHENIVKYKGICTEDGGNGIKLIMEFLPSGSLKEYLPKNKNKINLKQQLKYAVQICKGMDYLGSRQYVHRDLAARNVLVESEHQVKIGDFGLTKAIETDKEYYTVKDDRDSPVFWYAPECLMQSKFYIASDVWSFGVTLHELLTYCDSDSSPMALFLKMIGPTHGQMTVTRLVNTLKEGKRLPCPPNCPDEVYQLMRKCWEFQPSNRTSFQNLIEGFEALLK
Sequence of JAK2 (O60674 whole entry, species assumed): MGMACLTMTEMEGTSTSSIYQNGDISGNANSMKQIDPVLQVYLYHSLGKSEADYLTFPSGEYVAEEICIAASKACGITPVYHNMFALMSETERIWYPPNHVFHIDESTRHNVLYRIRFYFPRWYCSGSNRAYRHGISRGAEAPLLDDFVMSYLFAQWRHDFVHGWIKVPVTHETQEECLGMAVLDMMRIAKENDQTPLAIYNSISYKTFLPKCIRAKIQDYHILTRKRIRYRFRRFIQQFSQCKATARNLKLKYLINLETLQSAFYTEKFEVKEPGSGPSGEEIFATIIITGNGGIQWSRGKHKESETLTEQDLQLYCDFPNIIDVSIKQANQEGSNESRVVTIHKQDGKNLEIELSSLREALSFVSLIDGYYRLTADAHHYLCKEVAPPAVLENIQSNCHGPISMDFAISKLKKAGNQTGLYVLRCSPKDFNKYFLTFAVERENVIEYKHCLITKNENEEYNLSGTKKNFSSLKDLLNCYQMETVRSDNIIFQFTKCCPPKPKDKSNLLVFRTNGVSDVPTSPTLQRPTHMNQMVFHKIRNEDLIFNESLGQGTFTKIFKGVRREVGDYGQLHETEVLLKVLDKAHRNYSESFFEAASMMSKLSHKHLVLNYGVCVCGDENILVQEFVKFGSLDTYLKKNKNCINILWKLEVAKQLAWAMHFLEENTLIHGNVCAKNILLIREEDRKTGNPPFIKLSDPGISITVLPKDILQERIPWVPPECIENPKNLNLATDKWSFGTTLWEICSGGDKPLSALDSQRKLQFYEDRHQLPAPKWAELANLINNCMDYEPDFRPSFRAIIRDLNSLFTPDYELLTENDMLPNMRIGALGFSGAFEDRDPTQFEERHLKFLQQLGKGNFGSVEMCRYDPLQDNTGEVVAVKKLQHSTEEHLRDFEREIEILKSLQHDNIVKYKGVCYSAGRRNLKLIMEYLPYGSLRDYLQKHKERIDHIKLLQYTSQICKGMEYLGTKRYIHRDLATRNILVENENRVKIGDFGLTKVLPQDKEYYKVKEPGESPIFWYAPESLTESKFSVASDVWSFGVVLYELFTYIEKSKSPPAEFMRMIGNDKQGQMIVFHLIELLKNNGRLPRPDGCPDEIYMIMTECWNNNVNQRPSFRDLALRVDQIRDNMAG

Row | SMILES | IC50 (JAK1) [nM] | IC50 (JAK2) [nM] | IC50 (JAK3) [µM] | IC50 (TYK2) [µM]
1 | CN(c1ncnc2[nH]ccc12)C1CC2(C1)CN(C(=O)c1ccc(C(F)(F)F)cc1)C2 [Compound 31, (6-(methyl(7H-pyrrolo[2,3-d]pyrimidin-4-yl)amino)-2-azaspiro[3.3]heptan-2-yl)(4-(trifluoromethyl)phenyl)methanone] | 100 to 1000 | 1000 to 10000 | ≥ 10 | ≥ 10
2 | CN(c1ncnc2[nH]ccc12)C1CC2(C1)CN(C(=O)Nc1cccc(Cl)c1)C2 [Compound 33, N-(3-chlorophenyl)-6-(methyl(7H-pyrrolo[2,3-d]pyrimidin-4-yl)amino)-2-azaspiro[3.3]heptane-2-carboxamide] | 100 to 1000 | 1000 to 10000 | ≥ 10 | ≥ 10
3 | CN(c1ncnc2[nH]ccc12)C1CC2(C1)CN(C(=O)C1CCC(=O)CC1)C2 [Compound 12, 4-(6-(methyl(7H-pyrrolo[2,3-d]pyrimidin-4-yl)amino)-2-azaspiro[3.3]heptane-2-carbonyl)cyclohexanone] | 10 to 100 | 100 to 1000 | 1 to 10 | –
4 | CN(c1ncnc2[nH]ccc12)C1CCC2(CC1)CCN(C(=O)C1(C#N)CC1)CC2 [Compound 89, 1-{9-[Methyl-(7H-pyrrolo[2,3-d]pyrimidin-4-yl)-amino]-3-aza-spiro[5.5]undecane-3-carbonyl}-cyclopropanecarbonitrile] | 100 to 1000 | 100 to 1000 | 1 to 10 | –
5 | CN(c1ncnc2[nH]ccc12)C1CC2(C1)CN(C(=O)c1ccc(C#N)nc1)C2 [Compound 35, 5-(6-(methyl(7H-pyrrolo[2,3-d]pyrimidin-4-yl)amino)-2-azaspiro[3.3]heptane-2-carbonyl)picolinonitrile] | 10 to 100 | 1000 to 10000 | 1 to 10 | –
6 | CN(c1ncnc2[nH]ccc12)C1CCC2(CC1)CCN(C(=O)c1ccc(C#N)c(F)c1)CC2 [Compound 87, 2-Fluoro-4-{9-[methyl-(7H-pyrrolo[2,3-d]pyrimidin-4-yl)-amino]-3-aza-spiro[5.5]undecane-3-carbonyl}-benzonitrile] | 100 to 1000 | 100 to 1000 | 0.1 to 1 | –
7 | CN(c1ncnc2[nH]ccc12)C1CCC2(CC1)CCN(C(=O)c1cccc(C(F)(F)F)c1)CC2 [Compound 83, {9-[Methyl-(7H-pyrrolo[2,3-d]pyrimidin-4-yl)-amino]-3-aza-spiro[5.5]undec-3-yl}-(3-trifluoromethyl-phenyl)-methanone] | 100 to 1000 | 100 to 1000 | 1 to 10 | –
8 | CCCS(=O)(=O)N1CCC2(CCC(N(C)c3ncnc4c3CCN4)CC2)CC1 [Compound 96, (6,7-Dihydro-5H-pyrrolo[2,3-d]pyrimidin-4-yl)-methyl-[3-(propane-1-sulfonyl)-3-aza-spiro[5.5]undec-9-yl]-amine] | 100 to 1000 | 100 to 1000 | 1 to 10 | –
9 | CCS(=O)(=O)N1CCC2(CCC(N(C)c3ncnc4[nH]ccc34)CC2)CC1 [Compound 76, (3-Ethanesulfonyl-3-aza-spiro[5.5]undec-9-yl)-methyl-(7H-pyrrolo[2,3-d]pyrimidin-4-yl)-amine] | 100 to 1000 | 100 to 1000 | 1 to 10 | –
10 | Cc1cncc(C(=O)N2CC3(CC(N(C)c4ncnc5[nH]ccc45)C3)C2)n1 [Compound 29, (6-(methyl(7H-pyrrolo[2,3-d]pyrimidin-4-yl)amino)-2-azaspiro[3.3]heptan-2-yl)(6-methylpyrazin-2-yl)methanone] | 100 to 1000 | 1000 to 10000 | ≥ 10 | –

Second part, the molecule after the results:

Row | IC50 (JAK1) [nM] | IC50 (JAK2) [nM] | IC50 (JAK3) [µM] | IC50 (TYK2) [µM] | SMILES
11 | 10 to 100 | 1000 to 10000 | ≥ 10 | ≥ 10 | CN(c1ncnc2[nH]ccc12)C1CC2(C1)CN(C(=O)c1ccc(Cl)cn1)C2 [Compound 32, (5-chloropyridin-2-yl)(6-(methyl(7H-pyrrolo[2,3-d]pyrimidin-4-yl)amino)-2-azaspiro[3.3]heptan-2-yl)methanone]
12 | 10 to 100 | 100 to 1000 | ≥ 10 | ≥ 10 | CN(c1ncnc2[nH]ccc12)C1CC2(C1)CN(C(=O)c1ccc(C#N)cc1F)C2 [Compound 14, 3-fluoro-4-(6-(methyl(7H-pyrrolo[2,3-d]pyrimidin-4-yl)amino)-2-azaspiro[3.3]heptane-2-carbonyl)benzonitrile]
13 | ≤ 10 | 100 to 1000 | 1 to 10 | 1 to 10 | CN(c1ncnc2[nH]ccc12)C1CC2(C1)CN(C(=O)c1ccc(C#N)c(F)c1F)C2 [Compound 53, 2,3-difluoro-4-(6-(methyl(7H-pyrrolo[2,3-d]pyrimidin-4-yl)amino)-2-azaspiro[3.3]heptane-2-carbonyl)benzonitrile]
14 | 10 to 100 | 100 to 1000 | ≥ 10 | 1 to 10 | CN(c1ncnc2[nH]ccc12)C1CC2(C1)CN(C(=O)c1cc3ccccc3[nH]1)C2 [Compound 30, (1H-indol-2-yl)(6-(methyl(7H-pyrrolo[2,3-d]pyrimidin-4-yl)amino)-2-azaspiro[3.3]heptan-2-yl)methanone]
15 | 10 to 100 | 1000 to 10000 | ≥ 10 | ≥ 10 | CN(c1ncnc2[nH]ccc12)C1CC2(C1)CN(C(=O)c1ccc(F)cc1)C2 [Compound 27, (4-fluorophenyl)(6-(methyl(7H-pyrrolo[2,3-d]pyrimidin-4-yl)amino)-2-azaspiro[3.3]heptan-2-yl)methanone]
16 | 10 to 100 | 1000 to 10000 | ≥ 10 | ≥ 10 | COc1ccc(C(=O)N2CC3(CC(N(C)c4ncnc5[nH]ccc45)C3)C2)cc1 [Compound 24, (4-methoxyphenyl)(6-(methyl(7H-pyrrolo[2,3-d]pyrimidin-4-yl)amino)-2-azaspiro[3.3]heptan-2-yl)methanone]
17 | 10 to 100 | 100 to 1000 | ≥ 10 | ≥ 10 | Cc1ccsc1C(=O)N1CC2(CC(N(C)c3ncnc4[nH]ccc34)C2)C1 [Compound 28, (6-(methyl(7H-pyrrolo[2,3-d]pyrimidin-4-yl)amino)-2-azaspiro[3.3]heptan-2-yl)(3-methylthiophen-2-yl)methanone]
18 | 10 to 100 | 1000 to 10000 | ≥ 10 | ≥ 10 | CN(c1ncnc2[nH]ccc12)C1CC2(C1)CN(C(=O)c1ccc(C#N)c(F)c1)C2 [Compound 1, 2-fluoro-4-(6-(methyl(7H-pyrrolo[2,3-d]pyrimidin-4-yl)amino)-2-azaspiro[3.3]heptane-2-carbonyl)benzonitrile]
19 | ≤ 10 | 10 to 100 | 1 to 10 | – | CC#Cc1ccc(C(=O)N2CC3(CC(N(C)c4ncnc5[nH]ccc45)C3)C2)cc1 [Compound 42, (6-(methyl(7H-pyrrolo[2,3-d]pyrimidin-4-yl)amino)-2-azaspiro[3.3]heptan-2-yl)(4-(prop-1-yn-1-yl)phenyl)methanone]
20 | ≤ 10 | 100 to 1000 | 1 to 10 | – | C#Cc1ccc(C(=O)N2CC3(CC(N(C)c4ncnc5[nH]ccc45)C3)C2)cc1C [Compound 40, (4-ethynyl-3-methylphenyl)(6-(methyl(7H-pyrrolo[2,3-d]pyrimidin-4-yl)amino)-2-azaspiro[3.3]heptan-2-yl)methanone]
